Columns and labels:
Test in all cases: relative viability (nuclei count vs DMSO), 5 days (fraction); higher = more cells survive
201T = test system: 201T
Procedure, shortened: (§1)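 Cells from lung cancer lines were seeded into 1536-well plates and, one day later, dosed by pin tool. Treatments were either a single drug or a fixed dose of an anchor drug with five library-drug doses (not always all listed) in √10 steps. After 5 days, nuclei were stained in a one-step fixation (final 0.05% Triton X-100, 1% formaldehyde, 1 ug/ml Hoechst) and counted on 4× images, and relative viability is the treated-to-vehicle nuclei ratio, as the median of duplicate plates.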

NCI-H647 = test system: NCI-H647
Procedure, shortened: as §1

EMC-BAC-2 = test system: EMC-BAC-2
Procedure, shortened: as §1

NCI-H3122 = test system: NCI-H3122
Procedure, shortened: as §1

NCI-H2009 = test system: NCI-H2009
Procedure, shortened: as §1

H3255 = test system: H3255
Procedure, shortened: as §1

NCI-H2126 = test system: NCI-H2126
Procedure, shortened: as §1

NCI-H2170 = test system: NCI-H2170
Procedure, shortened: as §1

SK-MES-1 = test system: SK-MES-1
Procedure, shortened: as §1

LK-2 = test system: LK-2
Procedure, shortened: as §1

NCI-H596 = test system: NCI-H596
Procedure, shortened: as §1

NCI-H2087 = test system: NCI-H2087
Procedure, shortened: as §1

PC-14 = test system: PC-14
Procedure, shortened: as §1

NCI-H1734 = test system: NCI-H1734
Procedure, shortened: as §1

NCI-H322M = test system: NCI-H322M
Procedure, shortened: as §1

NCI-H441 = test system: NCI-H441
Procedure, shortened: as §1

NCI-H1755 = test system: NCI-H1755
Procedure, shortened: as §1

ChaGo-K-1 = test system: ChaGo-K-1
Procedure, shortened: as §1

NCI-H1651 = test system: NCI-H1651
Procedure, shortened: as §1

CAL-12T = test system: CAL-12T
Procedure, shortened: as §1

ABC-1 = test system: ABC-1
Procedure, shortened: as §1

LXF-289 = test system: LXF-289
Procedure, shortened: as §1

HOP-62 = test system: HOP-62
Procedure, shortened: as §1

`O=c1[nH]c2ccccc2n1C1CCN(CCCC(c2ccc(F)cc2)c2ccc(F)cc2)CC1` [Pimozide] + CS(=O)(=O)N1CCN(Cc2cc3nc(-c4cccc5[nH]ncc45)nc(N4CCOCC4)c3s2)CC1 [Pictilisib] (partner 1 µM) was tested, and the relative viability (201T; first compound 0.08 µM) was 0.69, the relative viability (201T; first compound 0.253 µM) was 0.613 and the relative viability (201T; first compound 0.8 µM) was 0.6. The relative viability (201T; first compound 2.53 µM) was 0.669, the relative viability (201T; first compound 8 µM) was 0.599 and the relative viability (NCI-H647; first compound 0.08 µM) was 0.389. The relative viability (NCI-H647; first compound 0.253 µM) was 0.39, the relative viability (NCI-H647; first compound 0.8 µM) was 0.448 and the relative viability (NCI-H647; first compound 2.53 µM) was 0.383. The relative viability (NCI-H647; first compound 8 µM) was 0.334, the relative viability (EMC-BAC-2; first compound 0.08 µM) was 0.486 and the relative viability (EMC-BAC-2; first compound 0.253 µM) was 0.51. It also gave a relative viability (EMC-BAC-2; first compound 0.8 µM) of 0.549, a relative viability (EMC-BAC-2; first compound 2.53 µM) of 0.532 and a relative viability (EMC-BAC-2; first compound 8 µM) of 0.54. The relative viability (NCI-H3122; first compound 0.08 µM) was 0.523, the relative viability (NCI-H3122; first compound 0.253 µM) was 0.588 and the relative viability (NCI-H3122; first compound 0.8 µM) was 0.514. For the same compound, the relative viability (NCI-H3122; first compound 2.53 µM) was 0.594, the relative viability (NCI-H3122; first compound 8 µM) was 0.573 and the relative viability (NCI-H2009; first compound 0.08 µM) was 0.853. The relative viability (NCI-H2009; first compound 0.253 µM) was 0.923, the relative viability (NCI-H2009; first compound 0.8 µM) was 0.786 and the relative viability (NCI-H2009; first compound 2.53 µM) was 0.769. The relative viability (NCI-H2009; first compound 8 µM) was 0.575, the relative viability (H3255; first compound 0.253 µM) was 0.406 and the relative viability (H3255; first compound 0.8 µM) was 0.575. For the same compound, the relative viability (H3255; first compound 2.53 µM) was 0.456, the relative viability (H3255; first compound 8 µM) was 0.506 and the relative viability (NCI-H2126; first compound 0.08 µM) was 0.437. For the same compound, the relative viability (NCI-H2126; first compound 0.253 µM) was 0.468, the relative viability (NCI-H2126; first compound 0.8 µM) was 0.512 and the relative viability (NCI-H2126; first compound 2.53 µM) was 0.499. For the same compound, the relative viability (NCI-H2126; first compound 8 µM) was 0.539, the relative viability (NCI-H2170; first compound 0.08 µM) was 0.308 and the relative viability (NCI-H2170; first compound 0.253 µM) was 0.382. The relative viability (NCI-H2170; first compound 0.8 µM) was 0.299, the relative viability (NCI-H2170; first compound 2.53 µM) was 0.326 and the relative viability (NCI-H2170; first compound 8 µM) was 0.236. The relative viability (SK-MES-1; first compound 0.08 µM) was 0.305, the relative viability (SK-MES-1; first compound 0.253 µM) was 0.308 and the relative viability (SK-MES-1; first compound 0.8 µM) was 0.36. It also gave a relative viability (SK-MES-1; first compound 2.53 µM) of 0.38, a relative viability (SK-MES-1; first compound 8 µM) of 0.341 and a relative viability (LK-2; first compound 0.08 µM) of 0.556. It also gave a relative viability (LK-2; first compound 0.253 µM) of 0.605, a relative viability (LK-2; first compound 0.8 µM) of 0.454 and a relative viability (LK-2; first compound 2.53 µM) of 0.547. For the same compound, the relative viability (LK-2; first compound 8 µM) was 0.553, the relative viability (NCI-H596; first compound 0.08 µM) was 0.414 and the relative viability (NCI-H596; first compound 0.253 µM) was 0.488. For the same compound, the relative viability (NCI-H596; first compound 0.8 µM) was 0.251, the relative viability (NCI-H596; first compound 2.53 µM) was 0.356 and the relative viability (NCI-H596; first compound 8 µM) was 0.344. For the same compound, the relative viability (NCI-H2087; first compound 0.08 µM) was 0.9, the relative viability (NCI-H2087; first compound 0.253 µM) was 0.994 and the relative viability (NCI-H2087; first compound 0.8 µM) was 0.824. For the same compound, the relative viability (NCI-H2087; first compound 2.53 µM) was 0.784, the relative viability (NCI-H2087; first compound 8 µM) was 0.62 and the relative viability (PC-14; first compound 0.253 µM) was 0.631. It also gave a relative viability (PC-14; first compound 0.8 µM) of 0.738, a relative viability (PC-14; first compound 2.53 µM) of 0.716 and a relative viability (PC-14; first compound 8 µM) of 0.634. For the same compound, the relative viability (NCI-H1734; first compound 0.08 µM) was 0.45, the relative viability (NCI-H1734; first compound 0.253 µM) was 0.444 and the relative viability (NCI-H1734; first compound 0.8 µM) was 0.489. For the same compound, the relative viability (NCI-H1734; first compound 2.53 µM) was 0.411, the relative viability (NCI-H1734; first compound 8 µM) was 0.46 and the relative viability (NCI-H322M; first compound 0.253 µM) was 0.509. For the same compound, the relative viability (NCI-H322M; first compound 0.8 µM) was 0.478, the relative viability (NCI-H322M; first compound 2.53 µM) was 0.482 and the relative viability (NCI-H322M; first compound 8 µM) was 0.382. The relative viability (NCI-H441; first compound 0.08 µM) was 0.593, the relative viability (NCI-H441; first compound 0.253 µM) was 0.445 and the relative viability (NCI-H441; first compound 0.8 µM) was 0.491. For the same compound, the relative viability (NCI-H441; first compound 2.53 µM) was 0.447, the relative viability (NCI-H441; first compound 8 µM) was 0.344 and the relative viability (NCI-H1755; first compound 0.08 µM) was 0.438. For the same compound, the relative viability (NCI-H1755; first compound 0.253 µM) was 0.441, the relative viability (NCI-H1755; first compound 0.8 µM) was 0.418 and the relative viability (NCI-H1755; first compound 2.53 µM) was 0.368. It also gave a relative viability (NCI-H1755; first compound 8 µM) of 0.307, a relative viability (ChaGo-K-1; first compound 0.08 µM) of 0.636 and a relative viability (ChaGo-K-1; first compound 0.253 µM) of 0.614. The relative viability (ChaGo-K-1; first compound 0.8 µM) was 0.694, the relative viability (ChaGo-K-1; first compound 2.53 µM) was 0.762 and the relative viability (ChaGo-K-1; first compound 8 µM) was 0.569. The relative viability (NCI-H1651; first compound 0.08 µM) was 0.62, the relative viability (NCI-H1651; first compound 0.253 µM) was 0.506 and the relative viability (NCI-H1651; first compound 0.8 µM) was 0.685. The relative viability (NCI-H1651; first compound 2.53 µM) was 0.543, the relative viability (NCI-H1651; first compound 8 µM) was 0.465 and the relative viability (CAL-12T; first compound 0.08 µM) was 0.399. For the same compound, the relative viability (CAL-12T; first compound 0.253 µM) was 0.244, the relative viability (CAL-12T; first compound 0.8 µM) was 0.418 and the relative viability (CAL-12T; first compound 2.53 µM) was 0.462. The relative viability (CAL-12T; first compound 8 µM) was 0.332, the relative viability (ABC-1; first compound 0.08 µM) was 0.596 and the relative viability (ABC-1; first compound 0.253 µM) was 0.84. It also gave a relative viability (ABC-1; first compound 0.8 µM) of 0.743, a relative viability (ABC-1; first compound 2.53 µM) of 0.589 and a relative viability (ABC-1; first compound 8 µM) of 0.474. The relative viability (LXF-289; first compound 0.08 µM) was 0.75, the relative viability (LXF-289; first compound 0.253 µM) was 0.799 and the relative viability (LXF-289; first compound 0.8 µM) was 0.781. The relative viability (LXF-289; first compound 2.53 µM) was 0.744, the relative viability (LXF-289; first compound 8 µM) was 0.719 and the relative viability (HOP-62; first compound 0.08 µM) was 0.687. For the same compound, the relative viability (HOP-62; first compound 0.253 µM) was 0.694, the relative viability (HOP-62; first compound 2.53 µM) was 0.687 and the relative viability (HOP-62; first compound 8 µM) was 0.635.

From the supplement of paper PMC10307832
